Patent publication EP0033825A2, “2-Cyano-vinyl-(thiono)(thiol)-phosphoric or phosphonic acid derivatives as endoparasiticidal agents” (priority 1980, dated 1981)
Like-named read-outs stand apart in the source and are kept apart here.

Columns and labels:
[1] = test system: gegen Benzimidazol-Anthelmintika resistenten Haemonchus contortus; assay: Haemonchus contortus/sheep test, benzimidazole-resistant strain (faecal egg count before and after oral treatment); assay type: in vivo; conditions: read-out: Dosis effectiva minima (Red. ≥90 %) resistenter Stamm
Text: (§1) Haemonchus contortus/Schaf
(§2) Experimentell mit normal empfindlichen bzw. mit gegen Benzimidazol-Anthelmintika resistenten Haemonchus contortus infizierte Schafe wurden nach Ablauf der Präpatenzzeit des Parasiten behandelt. Die Wirkstoffe wurde als reiner Wirkstoff in Gelatinekapseln oral appliziert.
(§3) Der Wirkungsgrad wird dadurch bestimmt, daß man die mit dem Kot ausgeschiedenen Wurmeier vor und nach der Behandlung quantitativ auszählt.
(§4) Ein völliges Sistieren der Eiausscheidung nach der Behandlung bedeutet, daß die Würmer abgetrieben wurden oder so geschädigt sind, daß sie keine Eier mehr produzieren (Dosis effectiva).
(§5) Geprüfte Wirkstoffe und wirksame Dosierungen (Dosis effectiva minima) sind aus der nachfolgenden Tabelle ersichtlich: […]

[2] = test system: normal empfindlichen Haemonchus contortus; assay: Haemonchus contortus/sheep test, normally sensitive strain (faecal egg count before and after oral treatment); assay type: in vivo; conditions: Schaf, pure active substance in gelatine capsules, treated after prepatent period, reduction of worm egg excretion ≥90 %, read-out: Dosis effectiva minima (Red. ≥90 %) normal empfind-licher Stamm
Text: as §1, §2, §3, §4, §5

[3] = Schaf, oral, pure active substance in gelatine capsules, treated after prepatent period, reduction of worm egg excretion ≥90 %, benzimidazole-resistant strain

SMILES | minimal effective dose ([1]; po) [mg/kg] | minimal effective dose [2] [mg/kg] | minimal effective dose [1, 3] [mg/kg]
c1ccc2[nH]c(-c3cscn3)nc2c1 [Thiabendazol, 2-(4-Thiazolyl)-benzimidazel] | 250 | 25 | –
COC(=O)Nc1nc2ccc(Sc3ccccc3)cc2[nH]1 [Fenbendazol, Methyl-(5-phenyl-thie-benzimidazol-2-yl)-carbamat] | 2.5 | 0.5 | –
CCCOP(=S)(OCC)OC(=CC#N)c1ccccc1C (centres unmarked) [Verbindung Nr. 89] | – | 2.5 | 2.5
CCCSc1ccc2nc(NC(=O)OC)[nH]c2c1 [Albendazol, Methyl-(5-prepylthio-benzimidazol-2-yl)-carbamat] | 5 | 0.5 | –
CCOP(=S)(OCC)OC(=CC#N)c1ccccc1Br [Verbindung Nr. 46] | – | 1 | 1
CCCCc1ccc2[nH]c(NC(=O)OC)nc2c1 [Parbendazol, 5-N-Butyl-2-methoxycarbonylaminobenzimidazol] | 10 | 1 | –
CCOP(=S)(OCC)OC(=CC#N)c1cccc(C)c1 [Verbindung Nr. 12] | – | 1 | 1
